Consider one molecule from article PMC7522982, “PKIS deep dive yields a chemical starting point for dark kinases and a cell active BRSK2 inhibitor” (Scientific Reports, 2020).

Molecules are shown by their SMILES.

Assay [1] concerns the target T1, PIM2 (Homo sapiens, UniProt Q9P1W9). Also on record: purchased Eurofins DiscoverX Corporation; method as in earlier work. To be noted: cited from earlier work.
Assay [2] deals with T1, PIM2. Further details: purchased Eurofins; method as in earlier work. To be noted: cited from earlier work.
Another assay addresses T2, RPS6KA3/RSK2 (Homo sapiens, UniProt P51812).
T2 construct: purchased Eurofins
In words: Eurofins kinase enzymatic radiometric assay. To be noted: Km of ATP, 9-point curve in duplicate. In kind it is biochemical. The text has this:
Due to our interest in the activity of GW296115 on several understudied IDG kinases, we collected full dose–response curves for all wild type kinases inhibited ≥ 75% in the DiscoverX panel that were offered by Eurofins. Having data in orthogonal formats is a powerful way to confirm inhibitory activity and adds rigor to our results. Eurofins has kinase enzymatic radiometric assays for 35 of the kinases on this list (Table S2) and a kinase enzymatic LANCE assay for one additional kinase (MAP2K5/MEK5).
Eurofins kinase enzymatic radiometric assays were carried out at the Km of ATP in dose–response (9-pt curve in duplicate) for each kinase for which it was offered.

For assay [3], the target named is T3, BRSK2 (Homo sapiens, UniProt Q8IWQ3).
T3 sequence (Q8IWQ3 1-736): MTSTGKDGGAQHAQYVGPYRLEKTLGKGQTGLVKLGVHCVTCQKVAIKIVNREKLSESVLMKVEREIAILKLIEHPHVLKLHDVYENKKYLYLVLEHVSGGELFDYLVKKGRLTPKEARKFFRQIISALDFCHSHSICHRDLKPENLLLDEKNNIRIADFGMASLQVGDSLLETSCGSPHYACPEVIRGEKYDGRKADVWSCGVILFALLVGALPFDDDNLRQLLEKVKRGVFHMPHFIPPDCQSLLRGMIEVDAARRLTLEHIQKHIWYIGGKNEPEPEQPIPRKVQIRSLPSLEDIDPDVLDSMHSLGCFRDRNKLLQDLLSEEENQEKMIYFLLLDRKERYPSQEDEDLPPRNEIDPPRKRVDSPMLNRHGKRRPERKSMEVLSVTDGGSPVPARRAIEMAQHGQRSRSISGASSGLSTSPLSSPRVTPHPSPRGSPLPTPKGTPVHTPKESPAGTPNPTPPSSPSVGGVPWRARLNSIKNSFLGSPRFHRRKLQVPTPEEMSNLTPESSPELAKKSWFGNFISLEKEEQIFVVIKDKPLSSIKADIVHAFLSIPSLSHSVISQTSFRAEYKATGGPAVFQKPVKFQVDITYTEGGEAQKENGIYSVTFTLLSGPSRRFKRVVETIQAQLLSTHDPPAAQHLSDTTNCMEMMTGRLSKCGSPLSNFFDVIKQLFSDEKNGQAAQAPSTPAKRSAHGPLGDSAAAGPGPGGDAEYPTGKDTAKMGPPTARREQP
In words: DiscoverX scanMAX competition binding assay. Also on record: purchased Eurofins DiscoverX Corporation. The text has this: Based on its narrow profile when tested in the combined Nanosyn and TSA panels, GW296115 was included in the recently released Kinase Chemogenomic Set (KCGS)[15]. All of the data presented in the Introduction section was collected prior to the inclusion of GW296115 in KCGS and everything that follows has been subsequently generated. Since its inclusion in PKIS and more recently KCGS, we have carried out a broader round of screening at DiscoverX. This profiling data has not been previously released and is reported here for the first time. GW296115 was profiled against 403 wild type human kinases at 1 μM using the DiscoverX scanMAX screening platform, which employs an active site-directed competition binding assay to quantitatively measure interactions between test compounds and kinases, [16]. GW296115 inhibited 25 kinases > 90% at 1 μM, resulting in a selectivity index (S10) of 0.062 at 1 μM (Table S2, Fig. 1C)[17].
The scanMAX assays were performed at Eurofins DiscoverX Corporation as previously described.

For the next assay, the target named is T4, STK17B/DRAK2 (Homo sapiens, UniProt O94768).
T4 sequence (O94768 1-372): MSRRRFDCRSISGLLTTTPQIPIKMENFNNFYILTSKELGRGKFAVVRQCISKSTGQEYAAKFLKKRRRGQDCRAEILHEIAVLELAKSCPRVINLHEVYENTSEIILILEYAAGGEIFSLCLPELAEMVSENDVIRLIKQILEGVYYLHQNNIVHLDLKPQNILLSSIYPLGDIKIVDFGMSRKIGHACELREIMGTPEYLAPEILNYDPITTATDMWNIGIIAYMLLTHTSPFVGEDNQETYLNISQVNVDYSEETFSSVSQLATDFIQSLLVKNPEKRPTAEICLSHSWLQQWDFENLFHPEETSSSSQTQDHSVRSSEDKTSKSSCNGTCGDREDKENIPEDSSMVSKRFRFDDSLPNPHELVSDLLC
Further details: purchased Eurofins; method as in earlier work. To be noted: cited from earlier work.

Assay [4] deals with T3, BRSK2. Further details: purchased Eurofins DiscoverX Corporation; method as in earlier work. To be noted: cited from earlier work.

T1 sequence (Q9P1W9 whole entry): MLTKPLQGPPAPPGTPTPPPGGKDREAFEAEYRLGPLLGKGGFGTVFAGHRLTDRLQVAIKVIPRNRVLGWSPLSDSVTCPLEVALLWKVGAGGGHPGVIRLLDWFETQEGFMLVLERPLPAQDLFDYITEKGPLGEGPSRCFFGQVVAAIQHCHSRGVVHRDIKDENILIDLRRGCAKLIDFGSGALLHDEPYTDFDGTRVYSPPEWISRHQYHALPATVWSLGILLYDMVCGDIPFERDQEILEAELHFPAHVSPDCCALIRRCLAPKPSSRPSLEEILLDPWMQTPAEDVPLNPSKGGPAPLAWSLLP
T2 sequence (P51812 whole entry): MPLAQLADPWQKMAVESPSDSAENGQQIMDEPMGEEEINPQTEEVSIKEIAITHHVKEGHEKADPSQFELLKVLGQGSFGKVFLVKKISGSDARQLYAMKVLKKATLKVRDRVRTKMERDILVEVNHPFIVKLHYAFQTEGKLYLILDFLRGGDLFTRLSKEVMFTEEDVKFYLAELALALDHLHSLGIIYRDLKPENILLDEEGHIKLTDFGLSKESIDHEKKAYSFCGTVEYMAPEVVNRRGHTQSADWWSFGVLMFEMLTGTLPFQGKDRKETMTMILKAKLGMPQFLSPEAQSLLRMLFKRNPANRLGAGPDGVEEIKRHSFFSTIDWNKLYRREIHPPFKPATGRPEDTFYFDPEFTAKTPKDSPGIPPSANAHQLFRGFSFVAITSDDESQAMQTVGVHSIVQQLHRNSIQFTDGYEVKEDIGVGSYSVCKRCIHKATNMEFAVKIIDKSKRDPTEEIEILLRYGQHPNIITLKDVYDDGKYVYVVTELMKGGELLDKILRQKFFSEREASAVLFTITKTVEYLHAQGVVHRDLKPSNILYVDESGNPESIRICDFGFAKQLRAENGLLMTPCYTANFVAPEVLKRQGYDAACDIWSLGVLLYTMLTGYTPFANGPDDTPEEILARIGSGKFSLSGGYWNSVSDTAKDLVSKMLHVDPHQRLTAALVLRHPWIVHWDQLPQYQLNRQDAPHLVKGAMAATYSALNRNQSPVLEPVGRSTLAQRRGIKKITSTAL

A word on the IC50: it is the concentration needed to halve the response being measured. A higher IC50 goes with lower potency. By inhibition is commonly meant the drop in the measured response relative to a control, in per cent. Low values mean a weak effect, high ones a strong effect. In the case of `COc1ccc2[nH]c3c4[nH]c5ccc(OC)cc5c4c4c(c3c2c1)C(=O)NC4=O` [GW296115], the “Nanosyn % Inhibition at 1 μM” value at PIM2 [1] is listed as 68%; on BRSK2 [4], 95%. The “TSA ΔTm at 10 μM (°C)” value on PIM2 [2] is 9.8 °C; at STK17B/DRAK2, 18.3 °C. At RPS6KA3/RSK2, this molecule gave an IC50 of 11 nM. The same molecule gave an inhibition at 1 µM at BRSK2 [3] of 83%.
